Source: patent US20260217693A1, “SRPK1 INHIBITORS AND METHODS OF USE” (ALLIANTHERA (SUZHOU) BIOPHARMACEUTICAL CO., LTD., priority 2023, published 2026)

Molecular target: SRPK1 (Homo sapiens, UniProt Q96SB4)
Test: SRPK1 assay, Method 2 (ADP-Glo luminescence)
Type: biochemical
Settings: Method 2 (asterisk): substrate Human SRSF1/SF2 0.15 μM, ATP 4 μM, 25° C. for 3 h, test compounds 100 nM top, 3-fold, 10 dose
Procedure: The SPRK1 assay was performed as follows:
Method 2: The assay buffer was prepared. The reference compound was diluted to 1 mM in the assay buffer. The test compounds were prepared at a concentration of 100 μM, then diluted 3-fold. Five nL of compounds/DMSO were transferred to 384-well plate. The reference compound is 1000 nM top concentration, 3-fold, 10 dose. The test compounds are 100 nM top concentration, 3-fold, 10 dose. 2.5 ul of enzyme (SRPK1 final concentration at […]) was added to each well, then the plate was spun down at 1000 rpm and centrifuged for 30 sec. After, 2.5 ul substrate (Human SRSF1/SF2 final concentration of 0.15 μM, ATP final concentration of 4 μM) was added to the plate, spun down at 1000 rpm and centrifuged for 30 sec. The plate was then placed in an incubator at 25° C. for 3 h. Then, 5 μl of ADP-Glo™ Reagent was added to each well, and the plate incubated at room temperature for 60 minutes. After 60 min, 10 μl of Kinase Detection Reagent was added to each well, and the plate was incubated at room temperature for 30 minutes. The luminescence of each well was recorded on Envision.
All assays were performed using Method 1, except where indicated with an asterisk (*) in the below table, indicating Method 2 was used. I.A. indicates an IC50 greater than 30 μM.

SRPK1, sequence (Q96SB4 whole entry): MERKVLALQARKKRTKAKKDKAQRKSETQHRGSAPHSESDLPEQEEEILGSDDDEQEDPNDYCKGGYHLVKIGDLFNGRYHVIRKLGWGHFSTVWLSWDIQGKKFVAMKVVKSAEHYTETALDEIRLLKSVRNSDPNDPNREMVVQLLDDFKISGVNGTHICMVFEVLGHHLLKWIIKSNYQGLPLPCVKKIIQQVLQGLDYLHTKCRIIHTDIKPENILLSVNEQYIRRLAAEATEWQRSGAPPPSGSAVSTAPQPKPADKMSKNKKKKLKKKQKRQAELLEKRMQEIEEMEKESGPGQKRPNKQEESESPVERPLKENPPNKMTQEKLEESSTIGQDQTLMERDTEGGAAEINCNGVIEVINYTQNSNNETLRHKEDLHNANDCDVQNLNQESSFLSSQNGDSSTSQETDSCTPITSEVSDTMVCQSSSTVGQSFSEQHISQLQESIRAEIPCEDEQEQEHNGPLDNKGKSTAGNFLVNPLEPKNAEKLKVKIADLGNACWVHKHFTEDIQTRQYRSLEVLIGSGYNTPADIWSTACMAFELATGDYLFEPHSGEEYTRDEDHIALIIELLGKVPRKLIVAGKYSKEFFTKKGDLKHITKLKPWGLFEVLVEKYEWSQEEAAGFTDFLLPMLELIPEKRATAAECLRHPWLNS

| SMILES | IC50 [nM] |
| --- | --- |
| CC1(C(N)=O)CCN(c2ncc(C(F)(F)F)cc2NC(=O)c2ccc(C3CCOCC3)o2)CC1 [Compound 048] | 24.9 |
| Nc1cc(-c2ccc(C(=O)Nc3cc(C4CC4)cnc3N3CCC(O)CC3)o2)ccn1 [Compound 018] | 0.942 |
| Nc1cc(-c2ccc(C(=O)Nc3cc(C(F)(F)F)cnc3N3CCC(O)CC3)o2)ccn1 [Compound 015] | 3.98 |
| Nc1cc(-c2ccc(C(=O)Nc3cc(C4CC4)cnc3N3CCC(O)CC3)o2)cc(N)n1 [Compound 020] | 0.248 |
| O=C(Nc1cc(C2CC2)cnc1N1CCC(O)CC1)c1ccc(-c2ccnc(O)c2)o1 [Compound 022] | 1.4 |

Continued, values first:

| IC50 [nM] | SMILES |
| --- | --- |
| 1.98 | O=C(Nc1cc(C(F)(F)F)cnc1N1CCC(O)CC1)c1ccc(-c2cn[nH]c2)o1 [Compound 053] |
| 0.615 | O=C(Nc1cc(C2CC2)cnc1N1CCC(O)CC1)c1ccc(-c2cn[nH]c2)o1 [Compound 086] |
| 0.769 | CC1(O)CCN(c2ncc(C3CC3)cc2NC(=O)c2ccc(-c3cn[nH]c3)o2)CC1 [Compound 095, N-[5-cyclopropyl-2-(4-hydroxy-4-methyl-1-piperidyl)-3-pyridyl]-5-(1H-pyrazol-4-yl) furan-2-carboxamide] |
| 3.23 | O=C(Nc1cc(C(F)(F)F)cnc1N1CCC(O)CC1)c1ccc(-c2cn[nH]c2)cn1 [Compound 097, N-[2-(4-hydroxy-1-piperidyl)-5-(trifluoromethyl)-3-pyridyl]-5-(1H-pyrazol-4-yl)pyridine-2-carboxamide] |
